Assay results reported in patent publication US8809316B2, “Use of immunosuppressant compounds in a new indication” (Novartis AG, priority 2008, dated 2014).

What was measured:
Format in all cases: in vivo, Lewis rats
[1] = tested on: Experimental Autoimmune Neuritis (EAN) rats; assay: EAN clinical (neurological) score, suppressive treatment
Body weight of EAN rats = assay: Body weight of EAN rats
[2] = tested on: sciatic nerves of EAN rats; assay: Immunohistochemistry of inflammatory cell infiltration in sciatic nerves of EAN rats; details: for Area of immunoreactivity/area of sciatic nerves (%) for B cells (OX22+) / Area of immunoreactivity/area of sciatic nerves (%) for Macrophages (ED1+) / Area of immunoreactivity/area of sciatic nerves (%) for T cells (W3/13+): Day 16, EAN rats
Method: (§1) To evaluate inflammatory cell infiltration and pathological changes in the PNS, five compound A-treated rats (at both concentrations) and five control EAN rats from Day 16 were sacrificed. Rats were deeply anaesthetized with ether and perfused intracardially with 4° C., 4% paraformaldehyde in PBS. Left and right sciatic nerves were quickly removed and post-fixed in 4% formaldehyde overnight at 4° C. Sciatic nerves were cut into two equally long segments, embedded in paraffin, serially sectioned (3 μm) and mounted on silan-covered slides.
After dewaxing, cross-sections of sciatic nerves were boiled (in a 600 W microwave oven) for 15 min in citrate buffer (2.1 g sodium citrate/L, pH 6). Endogenous peroxidase was inhibited with 1% H2O2 in methanol for 15 min. Sections were incubated with 10% normal pig serum (Biochrom, Berlin, Germany) to block non-specific binding of immunoglobulins and then with the following monoclonal antibodies: W3/13 (1:50; Serotec, Oxford, UK) for T lymphocytes, OX22 (1:200; Serotec, Oxford, UK) for B cells, ED1 for activated macrophages (1:100; Serotec, Oxford, UK). Antibody binding to tissue sections was visualized with biotinylated IgG F(ab)2 secondary antibody fragments (rabbit anti-mouse or rabbit anti-goat; 1:400; DAKO, Hamburg, Germany). Subsequently, sections were incubated with a Streptavidin-Avidin-Biotin complex (DAKO, Hamburg, Germany), followed by development with diaminobenzidine (DAB) substrate (Fluka, Neu-Ulm, Germany). Finally, sections were counterstained with Maier's Hemalum.
To evaluate immunostaining data, the percentages of areas of immunoreactivity (IR) to areas of sciatic nerve cross-sections were calculated. Images of sciatic nerve cross-sections were captured under 50× magnification using Nikon Coolscope (Nikon, Dusseldorf, Germany) with fixed parameters. Images were analyzed using MetaMorph Offline 7.1 (Molecular Devices, Toronto, Canada). Areas of IR were selected by colour threshold segmentation and all parameters were fixed for all images. Areas of sciatic nerve cross-sections were manually selected. For each EAN rat, four cross-sections from root and middle levels of both sides were analyzed. Results were given as arithmetic means of percentages of areas of IR to areas of sciatic nerve cross-sections and standard errors of means (SEM).

[3] = tested on: sciatic nerves of EAN rats; assay: Luxol Fast Blue (LFB) staining, mean histological score of sciatic nerves of EAN rats; details: for Mean Histological Score: LFB staining, scale 0-3, sciatic nerves, Day 16
Method: as §1
The routine Luxol Fast Blue (LFB) staining was applied to show myelin. Histological changes between Compound A and control EAN rats were compared by an established semi-quantitative method. Briefly, four cross-sections from root and middle level of both sides of EAN rats were analyzed. All perivascular areas present in cross-sections were evaluated by two observers unaware of the treatment, and the degree of pathological alteration was graded semiquantitatively on the following scale: 0=normal perivascular area; 1=mild cellular infiltrate adjacent to the vessel; 2=cellular infiltration plus demyelination in immediate proximity to the vessel; and 3=cellular infiltration and demyelination throughout the section. Results were given as mean histological score (Hartung et al., 1988).

[4] = 3 mg/kg intragastric once daily
[5] = 10 mg/kg intragastric once daily

## CCc1cc(/C(C)=N/OCc2ccc(C3CCCCC3)c(C(F)(F)F)c2)ccc1CN1CC(C(=O)O)C1 [Compound A, 1-{4-[1-(4-Cyclohexyl-3-trifluoromethyl-benzyloxyimino)-ethyl]-2-ethyl-benzyl}-azetidine-3-carboxylic acid]
[1]; days from immunisation, control maximum at Day 13
  Day of maximal neurological scores: 15 Day
[1]; days from immunisation, control recovered by Day 22
  Day of full recovery of rats: ≤ 19 days
[1]; days from immunisation, oral once daily until Day 22, control onset Day 9
  Day at which (greatly reduced) neurological signs were seen: 14 Day
[1]; relative to the water/cmc vehicle, FIGS. 1A and 1B
  Effect on clinical signs of EAN (in words): almost prevented the development of clinical signs of EAN
Body weight of EAN rats; higher dosage suspension (10 mg/kg), FIG. 2B
  Weight loss during disease (in words): small weight loss between days 11 and 12, followed by weight gain
Body weight of EAN rats; lower compound A suspension (3 mg/kg), Day 11 to 16, FIG. 2B
  Weight loss during disease (in words): reduced level of weight loss
[2]; [4]
  Area of immunoreactivity/area of sciatic nerves (%) for B cells (OX22+): 0.025%
  Area of immunoreactivity/area of sciatic nerves (%) for Macrophages (ED1+): 0.20%
  Area of immunoreactivity/area of sciatic nerves (%) for T cells (W3/13+): 0.08%
[2]; [5]
  Area of immunoreactivity/area of sciatic nerves (%) for B cells (OX22+): 0.021%
  Area of immunoreactivity/area of sciatic nerves (%) for Macrophages (ED1+): 0.11%
  Area of immunoreactivity/area of sciatic nerves (%) for T cells (W3/13+): 0.04%
[2]; EAN rats, Day 16
  Infiltration of T cells, B cells and macrophages in sciatic nerves (in words): significantly suppressed infiltration
[3]; 3 mg/kg
  Mean Histological Score: 0.51
[3]; 10 mg/kg
  Mean Histological Score: 0.25
[3]; Compound A-treated versus control EAN rats
  Mean histological scores measured by LFB staining (in words): markedly lower
